Entries after “also recorded” stand apart in the source; their conditions may differ. Each block holds one compound with its values, some of them ahead of it.
Legend:
HSP72 = settings: read-out: KM for ATP; cited from earlier work
HSP72-NBD [1] = target: T1, HSP72-NBD (Homo sapiens, UniProt P0DMV8); assay: HSP72-NBD nucleotide-derived FP-assay (probe displacement, App. Ki, time-dependent); type: binding
HSP72-NBD [2] = target: T1, HSP72-NBD; assay: Covalent (kinetic) FP-assay; type: binding
HSP72-NBD [3] = target: T1, HSP72-NBD; settings: even at high concentrations; cited from earlier work
HSP72-NBD [4] = target: T1, HSP72-NBD; assay: Intact-protein mass spectrometry of covalent adduct formation; type: binding; settings: 20 μM compound, 2.0 μM HSP72-NBD, 21 °C

T1 sequence (P0DMV8 2-386 limits assumed): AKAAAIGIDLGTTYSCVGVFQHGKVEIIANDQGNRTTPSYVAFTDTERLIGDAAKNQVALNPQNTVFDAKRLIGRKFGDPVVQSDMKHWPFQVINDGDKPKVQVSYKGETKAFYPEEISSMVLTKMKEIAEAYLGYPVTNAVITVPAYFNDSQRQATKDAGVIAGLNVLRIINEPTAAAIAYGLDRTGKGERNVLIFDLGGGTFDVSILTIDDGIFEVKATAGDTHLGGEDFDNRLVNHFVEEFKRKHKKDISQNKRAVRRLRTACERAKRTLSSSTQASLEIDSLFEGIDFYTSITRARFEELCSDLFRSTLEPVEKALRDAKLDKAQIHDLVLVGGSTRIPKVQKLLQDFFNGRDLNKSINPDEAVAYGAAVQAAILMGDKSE

SMILES: Nc1ncnc2c1ncn2[C@@H]1O[C@H](COP(=O)(O)OP(=O)(O)OP(=O)(O)O)[C@@H](O)[C@H]1O [ATP]
Km (HSP72): ~1 µM

Ki (HSP72-NBD [1]; Time 19 h): 7.2 µM | Ki (HSP72-NBD [1]; Time 46 h): 3.7 µM | Ki (HSP72-NBD [1]; Time […] (printed 0.08 3)): 17 µM | kinact (HSP72-NBD [2]; from kinact/KI and initial Ki, assuming KI = Ki): 1.6e-05 s⁻¹ | t1/2^inf (HSP72-NBD [2]; ln 2/kinact): 12 h
SMILES: C=CC(=O)OCCC[C@H]1O[C@@H](n2c(NCc3ccc(Cl)cc3)nc3c(N)ncnc32)[C@H](O)[C@@H]1O [Compound 2, 3-((2R,3S,4R,5R)-5-(6-amino-8-((4-chlorobenzyl)amino)-9H-purin-9-yl)-3,4-dihydroxytetrahydrofuran-2-yl)propyl acrylate]
exposure required for complete formation of the covalent complex by intact-protein MS (HSP72-NBD [3]): > 24 h

SMILES: Nc1ncnc2c1ncn2[C@@H]1O[C@H](COC(=O)c2ccc(S(=O)(=O)F)cc2)[C@@H](O)[C@H]1O [Compound 16, ((2R,3S,4R,5R)-5-(6-amino-9H-purin-9-yl)-3,4-dihydroxytetrahydrofuran-2-yl)methyl 4-(fluorosulfonyl)benzoate]
fold weaker activity / decrease in covalent efficiency vs TCI 14 (HSP72-NBD [2]): 70 fold

SMILES: Nc1ncnc2c1nc(NCc1ccc(Cl)cc1)n2[C@@H]1O[C@H](COCc2ccc(C(=O)Oc3ccc(F)cc3)cc2)[C@@H](O)[C@H]1O [Compound 8, 4-fluorophenyl 4-((((2R,3S,4R,5R)-5-(6-amino-8-((4-chlorobenzyl)amino)-9H-purin-9-yl)-3,4-dihydroxytetrahydrofuran-2-yl)methoxy)methyl)benzoate]
covalent-bond formation by intact-protein MS (HSP72-NBD [4]): no evidence of specific and selective covalent-bond formation

SMILES: CC1(C)O[C@@H]2[C@H](O1)[C@@H](COC(=O)c1ccc(S(=O)(=O)F)cc1)O[C@H]2n1c(NCc2ccc(Cl)cc2)nc2c(N)ncnc21 [Compound 13, ((3aR,4R,6R,6aR)-6-(6-amino-8-((4-chlorobenzyl)amino)-9H-purin-9-yl)-2,2-dimethyltetrahydrofuro[3,4-d][1,3]dioxol-4-yl)methyl 4-(fluorosulfonyl)benzoate]
reversible binding affinity (HSP72-NBD [1]): no reversible binding affinity | time dependence of App. Ki / probe displacement curve (HSP72-NBD [1]; WT HSP72-NBD): no time-dependent displacement | covalent-bond formation by intact-protein MS (HSP72-NBD [4]): no reaction; also recorded: no reactivity

fold weaker/less potent than tight-binding reversible MMP 9 (HSP72-NBD [1]): > 18 fold
SMILES: N#Cc1ccc(C(=O)OC[C@H]2O[C@@H](n3c(NCc4ccc(Cl)cc4)nc4c(N)ncnc43)[C@H](O)[C@@H]2O)cc1 [Compound 15, ((2R,3S,4R,5R)-5-(6-amino-8-((4-chlorobenzyl)amino)-9H-purin-9-yl)-3,4-dihydroxytetrahydrofuran-2-yl)methyl 4-cyanobenzoate]
